Experimental data taken from patent publication US20060173068A1, “Amorphous and crystalline forms of dorzolamide hydrochloride and processes of making same” (priority 2005, published 2006).

Assays:
[1] = Effect of varying relative humidity on amorphous Dorzolamide hydrochloride (hygroscopicity chamber; LOD by TGA, crystal form by XRD); type: physicochemical
Experimental: (§1) The scanning parameters are as follows: the range is preferably about 2° to about 40° 2θ over a substantially continuous scan at a rate of about 3° per minute. The accuracy of peak positions is defined as ±0.2° due to experimental differences, such as instrumentations, sample preparations, and the like.
Thermal Gravimetric Analysis (TGA) is preferably performed with a Mettler Toledo TGA/SDTA 851^e. Sample weights preferably range from about 7 to about 15 mg, the heating rate is preferably about 10° C. per minute in a N2 stream having a flow rate of about 50 ml per minute over a scan range of about 30° to about 250° C.
Each of a series of 200 mg samples of amorphous Dorzolamide hydrochloride are exposed to a relative humidity (RH) of one of 0, 20, 40, 60, 80, and 100 percent for a period of 5 days at room temperature in a hygroscopicity chamber. The loss on drying (LOD) of the samples is measured by TGA before and after exposure, and the values obtained are plotted against the RH values. In addition, the crystal form of each sample is measured by XRD before and after the exposure.

[2] = Exposure of amorphous Dorzolamide HCl to about 160° C. for about 15 minutes, crystal form by XRD; type: physicochemical; conditions: oven, open glass weighing bottle
Experimental: as §1

[3] = RH 0 %, 5 days, room temperature
[4] = RH 20 %, 5 days, room temperature
[5] = RH 40 %, 5 days, room temperature

## CCN[C@H]1C[C@H](C)S(=O)(=O)c2sc(S(N)(=O)=O)cc21.Cl [Amorphous Dorzolamide HCl, 5,6-dihydro-4-(S)-ethylamino-6-(S)-methyl-4H-thieno-[2,3-b]thiopyran-2-sulfonamide-7,7-dioxyde hydrochloride]
[1]; Original sample, before exposure
  Crystal form by XRD: amorphous
[1]; Original sample, before exposure, LOD by TGA
  LOD (%): 2.7%
[1]; [3]
  Crystal form by XRD: amorphous
  LOD (%): 2.0%
[1]; [4]
  Crystal form by XRD: amorphous
  LOD (%): 2.9%
[1]; [5]
  Crystal form by XRD: amorphous
  LOD (%): 3.8%
[1]; RH 60 %, 5 days, room temperature
  LOD (%): 0.2%
[1]; RH 60 %, 5 days, room temperature, hydrochloride
  Crystal form by XRD: Form II
[1]; RH 60 %, 5 days, room temperature, listed as Dorzolamide HCl, hydrochloride
  Crystal form by XRD: transforms to crystal form II
[1]; RH 80 %, 5 days, room temperature
  LOD (%): 0.2%
[1]; RH 80 %, 5 days, room temperature, hydrochloride
  Crystal form by XRD: Form II
[1]; RH 80 %, 5 days, room temperature, listed as Dorzolamide HCl, hydrochloride
  Crystal form by XRD: transforms to crystal form II
[1]; RH 100 %, 5 days, room temperature
  LOD (%): 0.2%
[1]; RH 100 %, 5 days, room temperature, hydrochloride
  Crystal form by XRD: Form II
[1]; RH 100 %, 5 days, room temperature, listed as Dorzolamide HCl, hydrochloride
  Crystal form by XRD: transforms to crystal form II
[2]
  Crystal form by XRD after heating: changed the material to the crystalline, anhydrous form II
